# Assays:
# Type in all cases: cell-based
# human Nav1.7 [1] = molecular target: T1, human Nav1.7 (Homo sapiens, UniProt Q15858); assay: FLIPR sodium dye assay (CoroNa Green AM Na+ dye, primary fluorescence assay) in recombinant Nav1.7/HEK293 cells; details: Table 6; CoroNa Green AM Na+ dye primary fluorescence assay; read-out: Nav1.7 Activity (μM) FLIPR assay IC50
# hNav1.7 = hNav1.7 (Homo sapiens, UniProt Q15858); assay: Electrophysiology (EP) whole-cell patch clamp assay in hNav1.7 expressing HEK-293 cells; details: Table 6; for Ki: affinity for inactivated channels, read-out: Nav1.7 Activity (μM) EP assay Ki; for Kd: resting block dissociation constant, read-out: Nav1.7 Activity (μM) EP assay Kr
# Method: The hNav1.7 expressing HEK-293 cells were plated on 35 mm culture dishes pre-coated with poly-D-lysine in standard DMEM culture media (Mediatech, Inc., Herndon, Va.) and incubated in a 5% CO2 incubator at 37° C. Cultured cells were used approximately 12-48 h after plating.
# On the day of experimentation, the 35 mm dish was placed on the stage of an inverted microscope equipped with a perfusion system that continuously perfuses the culture dish with fresh recording media. A gravity driven superfusion system was used to apply test solutions directly to the cell under evaluation. This system consists of an array of glass pipette glass connected to a motorized horizontal translator. The outlet of the shooter was positioned approximately 100 μm from the cell of interest.
# Whole cell currents were recorded using the whole-cell patch clamp configuration using an Axopatch 200B amplifier (Axon Instruments, Foster City Calif.), 1322A A/D converter (Axon Instruments) and pClamp software (v. 8; Axon Instruments) and stored on a personal computer. Gigaseals were formed and the whole-cell configuration was established in voltage clamp mode, and membrane currents generated by hNav1.7 were recorded in gap-free mode. Borosilicate glass pipettes have resistance values between 1.5 and 2.0 MΩ when filled with pipette solution and series resistance (<5 MΩ) was compensated 75-80%. Signals were sampled at 50 kHz and low pass filtered at 3 kHz.
# After establishing the whole-cell configuration in voltage clamp mode, two voltage protocols were run to establish: 1) the holding potential; and 2) the test potential for each cell.
# To determine a membrane potential at which the majority of channels are in the resting state, a standard steady-state inactivation (SSIN) protocol was run using 100 ms prepulses×10 mV depolarizing steps. The holding potential for testing resting block (Vh1) was 20 mV more hyperpolarized than the first potential where inactivation is observed with the inactivation protocol.
# From this holding potential a standard I-V protocol was run to determine the potential at which the maximal current (Imax) was elicited. This potential was the test potential (Vt).
# The compound testing protocol was a series of 10 ms depolarizations from the Vh1 (determined from the SSIN) to the Vt (determined from the I-V protocol) repeated every 10-15 seconds. […] Washout of the compound was attempted by superfusing with control solution once steady-state block was observed. The fractional response was calculated as follows: FR=I(after drug)/I(control), where I is the peak current amplitude and was used for estimating resting block dissociation constant, Kr: Kr=[drug]*{FR/(1−FR)}, where [drug] is the concentration of a drug.
# To assess the block of inactivated channels the holding potential was depolarized such that 20-50% of the current amplitude was reduced when pulsed to the same Vt as above. The magnitude of this depolarization depends upon the initial current amplitude and the rate of current loss due to slow inactivation. This was the second holding potential (Vh2). The current reduction was recorded to determine the fraction of available channels at this potential (h). h=I@Vh2/Imax.
# At this membrane voltage a proportion of channels are in the inactivated state, and thus inhibition by a blocker includes interaction with both resting and inactivated channels.
# To determine the potency of the test compound on inactivated channels, a series of currents were elicited by 10 ms voltage steps from Vh2 to Vt every 10-15 seconds. After establishing a stable baseline, the low concentration of the compound was applied. Multiple cumulative concentrations may have to be applied to identify a concentration that will block between 40-60% of the current. Washout was attempted to re-establish baseline. Fractional responses were measured with respect to a projected baseline to determine Kapp. Kapp=[drug]*{FR/(1−FR)}, where [drug] is the concentration of a drug. […]
# human Nav1.7 [2] = molecular target: T1, human Nav1.7; assay: FLIPR membrane potential dye assay (alternative fluorescence assay) in Nav1.7 expressing cells; details: Table 7
# Sequence of hNav1.7 (Q15858 1-1977 isoform Q15858-3): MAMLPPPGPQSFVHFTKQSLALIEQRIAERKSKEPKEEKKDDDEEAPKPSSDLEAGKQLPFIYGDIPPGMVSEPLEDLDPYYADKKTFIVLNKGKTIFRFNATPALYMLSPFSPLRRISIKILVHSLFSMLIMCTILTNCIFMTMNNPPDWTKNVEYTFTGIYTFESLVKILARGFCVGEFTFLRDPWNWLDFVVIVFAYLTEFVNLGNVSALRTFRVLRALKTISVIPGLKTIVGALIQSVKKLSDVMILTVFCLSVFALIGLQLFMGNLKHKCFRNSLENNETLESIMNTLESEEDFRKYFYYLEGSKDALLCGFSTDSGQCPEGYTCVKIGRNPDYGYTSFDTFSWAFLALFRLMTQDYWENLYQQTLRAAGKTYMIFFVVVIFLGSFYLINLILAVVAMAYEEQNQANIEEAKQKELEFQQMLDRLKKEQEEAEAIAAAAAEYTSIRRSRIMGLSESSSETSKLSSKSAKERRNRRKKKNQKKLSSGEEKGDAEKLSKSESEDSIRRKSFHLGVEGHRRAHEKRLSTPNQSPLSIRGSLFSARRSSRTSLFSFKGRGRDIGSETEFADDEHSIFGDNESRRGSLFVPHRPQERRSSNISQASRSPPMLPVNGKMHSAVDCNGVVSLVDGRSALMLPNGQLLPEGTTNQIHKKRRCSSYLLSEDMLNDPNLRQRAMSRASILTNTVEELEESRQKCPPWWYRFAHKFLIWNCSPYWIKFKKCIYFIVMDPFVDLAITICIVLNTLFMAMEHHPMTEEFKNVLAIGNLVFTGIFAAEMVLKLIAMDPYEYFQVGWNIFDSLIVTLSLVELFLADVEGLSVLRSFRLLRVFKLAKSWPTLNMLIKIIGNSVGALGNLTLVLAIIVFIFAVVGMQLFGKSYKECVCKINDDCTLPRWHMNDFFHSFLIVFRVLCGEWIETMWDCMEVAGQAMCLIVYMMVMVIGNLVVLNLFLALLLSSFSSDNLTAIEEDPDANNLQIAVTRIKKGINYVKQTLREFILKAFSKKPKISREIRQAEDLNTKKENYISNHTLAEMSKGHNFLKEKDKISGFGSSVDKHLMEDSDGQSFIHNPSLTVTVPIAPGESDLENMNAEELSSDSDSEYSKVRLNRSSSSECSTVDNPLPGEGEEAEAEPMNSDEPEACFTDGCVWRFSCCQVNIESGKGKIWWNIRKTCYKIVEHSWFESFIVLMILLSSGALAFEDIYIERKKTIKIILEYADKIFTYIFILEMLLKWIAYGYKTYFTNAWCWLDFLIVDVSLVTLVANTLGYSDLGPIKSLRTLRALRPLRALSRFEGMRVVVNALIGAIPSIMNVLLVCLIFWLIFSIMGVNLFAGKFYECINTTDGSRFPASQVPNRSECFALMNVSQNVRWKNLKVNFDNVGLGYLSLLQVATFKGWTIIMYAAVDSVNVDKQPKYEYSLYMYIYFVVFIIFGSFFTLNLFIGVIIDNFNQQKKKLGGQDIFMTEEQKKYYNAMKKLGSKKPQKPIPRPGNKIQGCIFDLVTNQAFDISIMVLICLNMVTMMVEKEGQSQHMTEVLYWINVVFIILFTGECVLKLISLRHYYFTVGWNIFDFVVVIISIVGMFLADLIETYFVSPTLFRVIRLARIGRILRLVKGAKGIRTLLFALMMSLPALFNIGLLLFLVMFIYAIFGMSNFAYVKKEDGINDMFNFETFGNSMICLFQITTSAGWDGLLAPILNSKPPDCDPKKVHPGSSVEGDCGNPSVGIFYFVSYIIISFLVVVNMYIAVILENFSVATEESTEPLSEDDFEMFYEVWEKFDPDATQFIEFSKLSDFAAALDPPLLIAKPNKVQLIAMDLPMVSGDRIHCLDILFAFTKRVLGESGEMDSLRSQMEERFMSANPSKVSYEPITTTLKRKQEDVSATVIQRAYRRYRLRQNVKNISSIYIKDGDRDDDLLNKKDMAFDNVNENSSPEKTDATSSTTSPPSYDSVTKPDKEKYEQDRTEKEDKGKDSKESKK
# T1 sequence (Q15858 1-1977 isoform Q15858-3): as above
IC50 (human Nav1.7 [1]) [µM],Ki (hNav1.7) [µM],IC50 (human Nav1.7 [2]) [µM],Kd (hNav1.7) [µM],Compound
0.2,0.027,,0.83,"NC(=O)c1cc(N[C@H]2CCNC2=O)nc(-c2ccc(Oc3cc(Cl)ccc3F)cc2)n1 [compound 117, (S)-2-(4-(5-chloro-2-fluorophenoxy)phenyl)-6-((2-oxopyrrolidin-3-yl)amino)pyrimidine-4-carboxamide]"
0.39,0.57,,7.17,"NC(=O)c1cc(N[C@H]2CCNC2=O)nc(-c2ccc(Oc3ccc(Cl)cn3)cc2)n1 [compound 133, (S)-2-(4-((5-chloropyridin-2-yl)oxy)phenyl)-6-((2-oxopyrrolidin-3-yl)amino)pyrimidine-4-carboxamide]"
2.42,0.82,,22.1,"NC(=O)c1cc(N[C@H]2CCNC2=O)nc(-c2ccc(Oc3cccc(F)n3)cc2)n1 [compound 134, (S)-2-(4-((6-fluoropyridin-2-yl)oxy)phenyl)-6-((2-oxopyrrolidin-3-yl)amino) pyrimidine-4-carboxamide]"
0.064,0.3,,26.8,"NC(=O)c1cc(N[C@H]2CCNC2=O)nc(-c2ccc(Oc3ccc(C4CC4)cn3)cc2)n1 [compound 142, (S)-2-(4-((5-cyclopropylpyridin-2-yl)oxy)phenyl)-6-((2-oxopyrrolidin-3-yl)amino)pyrimidine-4-carboxamide]"
0.52,1.25,,18.3,"C[C@H](Oc1cc(C(N)=O)nc(-c2ccc(Oc3ccc(C(F)(F)F)cn3)cc2)n1)C(N)=O [compound 146, (S)-6-((1-amino-1-oxopropan-2-yl)oxy)-2-(4-((5-(trifluoromethyl)pyridin-2-yl)oxy)phenyl)pyrimidine-4-carboxamide]"
1.19,,,,"NC(=O)c1cc(N[C@H]2CCNC2=O)nc(-c2ccc(Oc3cnc(C4CC4)cn3)cc2)n1 [compound 165, (S)-2-(4-((5-cyclopropylpyrazin-2-yl)oxy)phenyl)-6-((2-oxopyrrolidin-3-yl)amino)pyrimidine-4-carboxamide]"
3.9,,,,"NC(=O)c1cc(N[C@H]2CCNC2=O)nc(Oc2ccc(Oc3ccc(C(F)(F)F)cn3)cc2)n1 [compound 166, (S)-6-((2-oxopyrrolidin-3-yl)amino)-2-(4-((5-(trifluoromethyl)pyridin-2-yl)oxy)phenoxy)pyrimidine-4-carboxamide]"
> 20,,,,"NC(=O)c1cc(N[C@H]2CCNC2=O)nc(-c2ccc(Oc3ccc(F)cc3)cc2CN2CCC2)n1 [compound 167, (S)-2-(2-(azetidin-1-ylmethyl)-4-(4-fluorophenoxy)phenyl)-6-((2-oxopyrrolidin-3-yl)amino)pyrimidine-4-carboxamide]"
1.73,,,,"NC(=O)c1cc(N[C@H]2CCNC2=O)nc(-c2ccc(Oc3ccc(C(F)(F)F)cc3CN3CCC3)cc2)n1 [compound 168, (S)-2-(4-(2-(azetidin-1-ylmethyl)-4-(trifluoromethyl)phenoxy)phenyl)-6-((2-oxopyrrolidin-3-yl)amino)pyrimidine-4-carboxamide]"
0.74,,,,"NC(=O)c1cc(N[C@H]2CCNC2=O)nc(-c2ccc(Oc3ccc(C(F)(F)F)cc3CN3CCCC3)cc2)n1 [compound 169, (S)-6-((2-oxopyrrolidin-3-yl)amino)-2-(4-(2-(pyrrolidin-1-ylmethyl)-4-(trifluoromethyl)phenoxy)phenyl) pyrimidine-4-carboxamide]"
1.17,,,,"C[C@H](Nc1cc(C(N)=O)nc(-c2ccc(Oc3ccc(C(F)(F)F)cc3CN3CCCC3)cc2)n1)C(N)=O [compound 170, (S)-6-((1-amino-1-oxopropan-2-yl)amino)-2-(4-(2-(pyrrolidin-1-ylmethyl)-4-(trifluoromethyl)phenoxy)phenyl) pyrimidine-4-carboxamide]"
0.25,,,,"C[C@H](Nc1cc(C(N)=O)nc(-c2ccc(Oc3ccc(C(C)(C)C)cc3)cc2)n1)C(N)=O [compound 171, (S)-6-((1-amino-1-oxopropan-2-yl)amino)-2-(4-(4-(tert-butyl)phenoxy)phenyl)pyrimidine-4-carboxamide]"
2.07,,,,"NC(=O)c1cc(N[C@H]2CCNC2=O)nc(Nc2ccc(Oc3ccc(C(F)(F)F)cn3)cc2)n1 [compound 172, (S)-6-((2-oxopyrrolidin-3-yl)amino)-2-((4-((5-(trifluoromethyl)pyridin-2-yl)oxy)phenyl)amino)pyrimidine-4-carboxamide]"

# Continued, compound first:
Compound,IC50 (human Nav1.7 [1]) [µM],Ki (hNav1.7) [µM],IC50 (human Nav1.7 [2]) [µM],Kd (hNav1.7) [µM]
"NC(=O)c1cc(N[C@H]2CCNC2=O)nc(N2[C@@H]3CC[C@H]2C[C@H](Oc2ccc(C(F)(F)F)cn2)C3)n1 [Cpd No. 183, 6-(((S)-2-oxopyrrolidin-3-yl)amino)-2-((1R,3R,5S)-3-((5-(trifluoromethyl)pyridin-2-yl)oxy)-8-azabicyclo[3.2.1]octan-8-yl)pyrimidine-4-carboxamide]",1.27,0.49,,
"NC(=O)c1cc(N[C@H]2CCNC2=O)nc(-c2ccc(Cc3ccc(C(F)(F)F)cn3)cc2)n1 [Cpd No. 190, (S)-6-((2-oxopyrrolidin-3-yl)amino)-2-(4-((5-(trifluoro-methyl)pyridin-2-yl)methyl)-phenyl)pyrimidine-4-carboxamide]",1.61,0.29,,
"CCN(CC)Cc1cc(C(F)(F)F)ccc1Oc1ccc(-c2nc(O[C@H]3CCNC3=O)cc(C(N)=O)n2)cc1 [Cpd No. 216, (S)-2-(4-(2-((diethylamino)-methyl)-4-(trifluoromethyl)-phenoxy)phenyl)-6-((2-oxopyrrolidin-3-yl)oxy)-pyrimidine-4-carboxamide]",,,1.21,
"CC(=O)c1ccc(Oc2ccc(-c3nc(N[C@H]4CCNC4=O)cc(C(N)=O)n3)cc2)nc1 [Cpd No. 217, (S)-2-(4-((5-acetylpyridin-2-yl)oxy)phenyl)-6-((2-oxo-pyrrolidin-3-yl)amino)-pyrimidine-4-carboxamide]",,,> 20,
"Cn1cc(-c2ccc(-c3nc(N[C@H]4CCNC4=O)cc(C(N)=O)n3)cc2)c2ccc(C(F)(F)F)cc21 [Cpd No. 218, (S)-2-(4-(1-methyl-6-(trifluoromethyl)-1H-indol-3-yl)phenyl)-6-((2-oxopyrrolidin-3-yl)amino)pyrimidine-4-carboxamide]",,,4.03,
"Cn1nccc1-c1cc(Oc2ccc(C(F)(F)F)cc2)ccc1-c1nc(N[C@H]2CCNC2=O)cc(C(N)=O)n1 [Cpd No. 219, (S)-2-(2-(1-methyl-1H-pyrazol-5-yl)-4-(4-(trifluoromethyl)-phenoxy)phenyl)-6-((2-oxopyrrolidin-3-yl)amino)-pyrimidine-4-carboxamide]",,,0.94,
"NC(=O)c1cc(N[C@H]2CCNC2=O)nc(-c2ccc(Oc3ccc(C(F)F)cn3)cc2)n1 [Cpd No. 220, (S)-2-(4-((5-(difluoromethyl)-pyridin-2-yl)oxy)phenyl)-6-((2-oxopyrrolidin-3-yl)amino)-pyrimidine-4-carboxamide]",,,2.76,
"NC(=O)c1cc(N[C@H]2CCNC2=O)nc(-c2ccc(N3Cc4cc(Cl)ccc4OCC3=O)cc2)n1 [Cpd No. 221, (S)-2-(4-(7-chloro-3-oxo-2,3-dihydrobenzo[f][1,4]oxazepin-4(5H)-yl)phenyl)-6-((2-oxopyrrolidin-3-yl)amino)-pyrimidine-4-carboxamide]",,,> 20,
"NC(=O)c1cc(N[C@H]2CCNC2=O)nc(N2C3CCC2CC(Oc2ccc(C(F)(F)F)cn2)C3)n1 (stereo partly drawn) [compound 140, 6-(((S)-2-oxopyrrolidin-3-yl)amino)-2-(3-((5-(trifluoromethyl)pyridin-2-yl)oxy)-8-azabicyclo[3.2.1]octan-8-yl)pyrimidine-4-carboxamide]",0.38,2.55,,46.2

# Source: patent US10196364B2, “Pyrimidine carboxamides as sodium channel blockers” (Purdue Pharma L.P., priority 2013, dated 2019)
